{
  "source": "patent US8557858B2",
  "about": "“(E)-N-(2-amino-phenyl)-3-{1-[4-(l-methyl-1H-pyrazol-4-yl)-benzenesulfonyl]-1H-pyrrol-3-yl}-acrylamide salts” (4SC AG, priority 2008, dated 2013)",
  "type_in_all_cases": "physicochemical",
  "details_in_all_cases": "compared to the known hydrochloride salt",
  "key": {"Stability of the salts": {"experiment": "Stability of the salts"}, "Solubility of the salt": {"experiment": "Solubility of the salt"}, "[1]": {"experiment": "Dissolution behavior / dissolution velocity of the salts"}},
  "data": [
    {"smiles": "Cc1ccc(S(=O)(=O)O)cc1.Cn1cc(-c2ccc(S(=O)(=O)n3ccc(/C=C/C(=O)Nc4ccccc4N)c3)cc2)cn1", "note": "[toluenesulfonate salt, (E)-N-(2-Amino-phenyl)-3-{1-[4-(1-methyl-1H-pyrazol-4-yl)-benzenesulfonyl]-H-pyrrol-3-yl}-acrylamide toluene-4-sulfonate]", "values": [
      {"measurement": "stability", "setting": "Stability of the salts", "value": "enhanced"},
      {"measurement": "solubility", "setting": "Solubility of the salt", "value": "high"},
      {"measurement": "dissolution velocity", "setting": "[1]", "value": "particularly high"}
    ]}
  ]
}
